Starred links: 1 amine or outer side, 2 acyl side, 3 side chain; linkers in the order of their positions; H or OH if unused. Positions of bridges follow the written chain, without caps; N, C: chain ends. Non-standard residues stand in square brackets, D forms with d. Residues, ends and D or L forms follow the SMILES beside them. Lys(N3) = [N-]=[N+]=NCCCC[C@H](N)C(=O)O; AEEA = NCCOCCOCC(=O)O; CH2 = C([*:1])[*:2]

The target in one data set is K-Ras(G12D) (Homo sapiens, UniProt P01116, G12D). Particulars: cited from earlier work.
The test system of data set [1] is A427 cells (which contain the K-Ras(G12D) mutation). The settings on record: dose-dependent manner; cited from earlier work.
Data set [2] in a line: Cell homogenate stability assay. Type of data set: in vitro ADME. The protocol:
Stability of peptides towards intracellular proteases can be evaluated using HeLa cell homogenate. Suspended HeLa cells at 1 million cells/mL are sonicated in bursts with a probe sonicator on ice until uniformly homogenized. The homogenate thus prepared is frozen and stored at −20° C. until use. The peptides are incubated with the homogenate at 1 million cells/mL and loss of the peptide with increasing time is quantified using LC-MS/MS. Briefly, the test peptide is incubated with the homogenate at 1 μM in final volume of 50 μL at 37° C. At 0, 10, 30, 60 and 120 min, the reactions are quenched with 150 μL solution of 80% (v/v) Acetonitrile in Methanol containing a known internal standard peptide. The quenched samples are centrifuged at 4000 rpm for 5 min at 10° C. and supernatants are injected for bioanalysis by liquid chromatography combined with tandem-mass spectrometer. […] In addition, pre-boiled homogenate (prepared by incubating homogenate for 30 min in boiling water) is also used as a negative control for each test peptide. The ke is first-order rate constant describing the disappearance of parent drug in the incubation and may be obtained from regressing the initial slope (ke=−(slope)) of the natural log of the analyte area/internal standard area (designated as C at an appointed time t) in C versus time (min) profile. The half-life (t½) is calculated as: […]

Data set [3] concerns AsPC-1 (homozygous K-Ras(G12D)) cells. In words: Cellular phospho-ERK assay in AsPC-1 cells. In kind it is cell-based. How it is done: The cellular K-Ras inhibitory activity was evaluated by phosphorylation levels of ERK1/2 in AsPC-1 (homozygous K-Ras(G12D)) cells. AsPC-1 cells (ATCC® CRL-1682™) were cultured in T175 flask in growth medium (RPMI 1640 Medium, GlutaMAX™ Supplement, HEPES (Gibco 72400-047) supplemented with 10% fetal bovine serum (Hyclone SH30071.03) and 1× Penicillin/Streptomycin (Gibco 15140-122). The cells were harvested in seeding medium (RPMI 1640 Medium, no phenol red (Gibco 11835-030) supplemented with 10% fetal bovine serum (Hyclone SH30071.03), 25 mM HEPES (Gibco 15630-080) and 1× Penicillin/Streptomycin (Gibco 15140-122) after 5 min of 0.25% Trypsin-EDTA (Gibco 25200-056) digestion and were seeded in 384-well tissue culture treated plate (Greiner 781091) at a density of 15,000 cells/25 μL/well, and incubated at 37° C., 5% CO2 overnight. […] Phosphorylated ERK and total ERK levels were detected by Alpha SureFire Ultra Multiplex pERK kit (PerkinElmer MPSU-PTERK) using […] and 5 μL donor bead mix, both prepared following the manufacturer's protocol. […] Ratio of pERK vs total ERK in each well was used as the final readout. Dose response curves and EC50 were analyzed using a 4-parameter logistic equation in GraphPad Prism software (GraphPad, San Diego, CA).

The target in a further data set is T1, K-Ras(G12D) (GMPPNP) (Homo sapiens, UniProt P01116, G12D).
T1 construct: His-SUMO-tagged human K-Ras resides 1-169 was expressed; His-SUMO (N, cleaved yes); made in house; host or cells: E. coli Rosetta 2 (DE3)
In words: TR-FRET competitive binding assay, K-Ras(G12D) loaded with GMPPNP.

The subject of the next data set is ERK1/2. The settings on record: cited from earlier work.
The target in data set [4] is T2, K-Ras^G12D (GDP) (Homo sapiens, UniProt P01116, G12D).
T2 construct: His-SUMO-tagged human K-Ras resides 1-169 was expressed; His-SUMO (N, cleaved yes); made in house; host or cells: E. coli Rosetta 2 (DE3)
The experiment in a line: TR-FRET competitive binding assay, K-Ras(G12D) loaded with GDP.

In data set [5] the target is T2, K-Ras^G12D (GDP). In words: TR-FRET [K-Ras^G12D (GDP)] | EC50 (nM).

Regarding `CC[C@H](C)[C@@H]1NC(=O)[C@H](Cc2ccc(O)cc2)NC(=O)[C@H](CC(C)C)NC(=O)[C@@H]2CCCN2C(=O)[C@@H](NN[C@@H](CCCNC(=N)N)C(=O)N[C@@H](CCCNC(=N)N)C(=O)N[C@@H](CCCNC(=N)N)C(=O)N[C@@H](CCCNC(=N)N)C(=O)CC=O)CSSC[C@@H](C(=O)N[C@@H](CCCNC(=N)N)C(=O)N[C@@H](CCCNC(=N)N)C(=O)N[C@@H](CCCNC(=N)N)C(=O)N[C@@H](CCCNC(=N)N)C(N)=O)NC(=O)[C@H](C(C)C)NC(=O)[C@@H]2CCCN2C(=O)[C@H](CC(=O)O)NC(=O)[C@H](Cc2ccc(O)cc2)NC(=O)[C@H](CO)NC1=O` [KRpep-2d], the “mutant selectivity in SOS1-mediated GDP-GTP exchange” value on K-Ras(G12D) (G12D against G12C and wild-type K-Ras) was “G12D-mutant selectivity against G12C and wild-type K-Ras variants”. Besides, the “inhibition of SOS1-mediated GDP-GTP exchange” value at K-Ras(G12D) is recorded as “potently inhibited”. Also, the “cell proliferation of A427 cells” value in data set [1] is on record as “suppressed cell proliferation”. The “proteolytic degradation of the macrocycle in a cell homogenate stability study” value in data set [2] was “rapid proteolytic degradation”. Besides, in data set [3], the “inhibition of ERK phosphorylation in an AsPC-1 cell line” value is “absence of biological activity”. In addition, at K-Ras(G12D) (GMPPNP), the “affinity for the GTP-loaded form of K-Ras (G12D)” value is reported as “weaker affinity”. Also, the “phosphorylation levels of ERK1/2” value in the data set on ERK1/2 is “reduced phosphorylation levels of ERK1/2”. In addition, the “affinity for the GDP-loaded form of K-Ras (G12D)” value at K-Ras^G12D (GDP) [4] is recorded as “high affinity”.
Turning to `CC[C@H](C)[C@@H]1NC(=O)[C@H](Cc2ccc(O)cc2)NC(=O)[C@H](CC(C)C)NC(=O)[C@@H]2CCCN2C(=O)[C@H](NC(=O)COCCOCCNC(=O)[C@H](CCCCN=[N+]=[N-])NC(=O)CNC(=O)[C@H](CCCCN)NC(=O)[C@H](CCCCN)NC(=O)[C@H](Cc2c[nH]c3ccccc23)NC(=O)[C@H](CCCCN)NC(=O)[C@H](CCSC)NC(=O)[C@H](CCCNC(=N)N)NC(=O)[C@H](CCCNC(=N)N)NC(=O)[C@H](CC(N)=O)NC(=O)[C@H](CCC(N)=O)NC(=O)[C@H](Cc2ccccc2)NC(=O)[C@H](Cc2c[nH]c3ccccc23)NC(=O)[C@@H](NC(=O)[C@H](CCCCN)NC(=O)[C@@H](NC(=O)[C@H](CCC(N)=O)NC(=O)[C@H](CCCNC(=N)N)NC(C)=O)[C@@H](C)CC)[C@@H](C)CC)CSCSC[C@@H](C(=O)N[C@@H](CCCNC(=N)N)C(N)=O)NC(=O)[C@H](C(C)C)NC(=O)[C@@H]2CCCN2C(=O)[C@H](CC(=O)O)NC(=O)[C@H](Cc2ccc(O)cc2)NC(=O)[C@H](CO)NC1=O` [SEQ ID NO: 16] (Ac-RQIKIWFQNRRMKWKKG[Lys(N3)][AEEA][dC]PLYISYDPVCR-NH2; linker 20-30 via CH2), at K-Ras^G12D (GDP) [5], the EC50 is 400 nM.
